{"source": "patent US20100099561A1", "about": "“HETEROBICYCLIC ALKYLTHIO-BRIDGED ISOXAZOLINES” (E.I. DU PONT DE NEMOURS AND COMPANY, priority 2008, published 2010)", "format_in_all_cases": "in vivo", "key": {"[1]": {"test_system": "large crabgrass (Digitaria sanguinalis)", "experiment": "Test A postemergence, large crabgrass", "settings": "0 to 100 scale (0 no effect, 100 complete control)", "method_in_brief": "(§1)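 Sow seeds in loam–sand blend; spray soil directly (pre) and treat emerged one- to two-leaf plants 2–10 cm tall (post) with compound in surfactant-containing non-phytotoxic solvent. Keep in greenhouse about ten days. Score injury visually against controls from 0 to 100.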"}, "[2]": {"test_system": "sunflower (common oilseed sunflower, Helianthus annuus)", "experiment": "Test B preemergence, sunflower", "settings": "Table B, preemergence; visual rating on a 0 to 100 scale (0 no effect, 100 complete control), 13 to 15 days after treatment; application rate of this section not shown", "source_text": "(§2) Seeds of plant species selected from blackgrass (Alopecurus myosuroides), downy bromegrass (Bromus tectorum), green foxtail (Setaria viridis), Italian ryegrass (Lolium multiflorum), wheat (Triticum aestivum), wild oat (Avena fatua), catchweed bedstraw (Galium aparine), bermudagrass (Cynodon dactylon), Surinam grass (Brachiaria decumbens), cocklebur (Xanthium strumarium), corn (Zea mays), large crabgrass (Digitaria sanguinalis), woolly cupgrass (Eriochloa villosa), giant foxtail (Setaria faberii), goosegrass (Eleusine indica), johnsongrass (Sorghum halepense), kochia (Kochia scoparia), lambsquarters (Chenopodium album), morningglory (Ipomoea coccinea), nightshade (eastern black nightshade, Solanum ptycanthum), yellow nutsedge (Cyperus esculentus), pigweed (Amaranthus retroflexus), ragweed (common ragweed, Ambrosia elatior), soybean (Glycine max), sunflower (common oilseed sunflower, Helianthus annuus), Russian thistle (Salsola kali), and velvetleaf (Abutilon theophrasti) were planted into a blend of loam soil and sand and treated preemergence with test compounds formulated in a non-phytotoxic solvent mixture which included a surfactant. Treated plants and controls were maintained in a greenhouse for 13 to 15 days, after which time all species were compared to controls and visually evaluated. Plant response ratings, summarized in Table B, are based on a scale of 0 to 100 where 0 is no effect and 100 is complete control. A dash (-) response means no test result."}, "[3]": {"test_system": "wheat (Triticum aestivum)", "experiment": "Test B preemergence, wheat", "settings": "Table B, preemergence; visual rating on a 0 to 100 scale (0 no effect, 100 complete control), 13 to 15 days after treatment; application rate of this section not shown", "source_text": "as §2"}, "[4]": {"test_system": "wheat (Triticum aestivum)", "experiment": "Test A preemergence, wheat", "settings": "0 to 100 scale (0 no effect, 100 complete control)", "method_in_brief": "as §1"}, "[5]": {"test_system": "morningglory (Ipomoea spp.)", "experiment": "Test A preemergence, morningglory", "settings": "0 to 100 scale (0 no effect, 100 complete control)", "method_in_brief": "as §1"}, "[6]": {"test_system": "giant foxtail (Setaria faberi)", "experiment": "Test A preemergence, giant foxtail", "settings": "0 to 100 scale (0 no effect, 100 complete control)", "method_in_brief": "as §1"}, "[7]": {"test_system": "wheat (Triticum aestivum)", "experiment": "Test A postemergence, wheat", "settings": "0 to 100 scale (0 no effect, 100 complete control)", "method_in_brief": "as §1"}, "[8]": {"test_system": "velvetleaf (Abutilon theophrasti)", "experiment": "Test B preemergence, velvetleaf", "settings": "Table B, preemergence; visual rating on a 0 to 100 scale (0 no effect, 100 complete control), 13 to 15 days after treatment; application rate of this section not shown", "source_text": "as §2"}, "soybean (Glycine max)": {"test_system": "soybean (Glycine max)", "experiment": "Test B preemergence, soybean", "settings": "Table B, preemergence; visual rating on a 0 to 100 scale (0 no effect, 100 complete control), 13 to 15 days after treatment; application rate of this section not shown", "source_text": "as §2"}, "[9]": {"test_system": "Italian ryegrass (Lolium multiflorum)", "experiment": "Test B preemergence, Italian ryegrass", "settings": "Table B, preemergence; visual rating on a 0 to 100 scale (0 no effect, 100 complete control), 13 to 15 days after treatment; application rate of this section not shown", "source_text": "as §2"}, "[10]": {"test_system": "giant foxtail (Setaria faberi)", "experiment": "Test A postemergence, giant foxtail", "settings": "0 to 100 scale (0 no effect, 100 complete control)", "method_in_brief": "as §1"}, "rice (Oryza sativa)": {"test_system": "rice (Oryza sativa)", "experiment": "Test B flooded paddy test, rice", "settings": "Flood, scale 0 to 100", "method_in_brief": "(§3)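 Rice, umbrella sedge, ducksalad and barnyardgrass at 2-leaf stage; pots flooded to 3 cm, compounds applied into paddy water, depth held throughout. Greenhouse 13 to 15 days, then visual rating vs untreated controls on 0–100 scale (0 no effect, 100 complete control); dash means no test result.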"}, "[11]": {"test_system": "velvetleaf (Abutilon theophrasti)", "experiment": "Test A postemergence, velvetleaf", "settings": "0 to 100 scale (0 no effect, 100 complete control)", "method_in_brief": "as §1"}, "[12]": {"test_system": "pigweed (Amaranthus retroflexus)", "experiment": "Test A postemergence, pigweed", "settings": "0 to 100 scale (0 no effect, 100 complete control)", "method_in_brief": "as §1"}, "corn (Zea mays) [13]": {"test_system": "corn (Zea mays)", "experiment": "Test A postemergence, corn", "settings": "0 to 100 scale (0 no effect, 100 complete control)", "method_in_brief": "as §1"}, "[14]": {"test_system": "velvetleaf (Abutilon theophrasti)", "experiment": "Test A preemergence, velvetleaf", "settings": "0 to 100 scale (0 no effect, 100 complete control)", "method_in_brief": "as §1"}, "[15]": {"test_system": "barnyardgrass (Echinochloa crus-galli)", "experiment": "Test A preemergence, barnyardgrass", "settings": "0 to 100 scale (0 no effect, 100 complete control)", "method_in_brief": "as §1"}, "[16]": {"test_system": "ducksalad (Heteranthera limosa)", "experiment": "Test B flooded paddy test, ducksalad", "settings": "Flood, scale 0 to 100", "method_in_brief": "as §3"}, "corn (Zea mays) [17]": {"test_system": "corn (Zea mays)", "experiment": "Test A preemergence, corn", "settings": "125 g ai/ha, 0 to 100 scale (0 no effect, 100 complete control)", "method_in_brief": "as §1"}, "[18]": {"test_system": "morningglory (Ipomoea spp.)", "experiment": "Test A postemergence, morningglory", "settings": "0 to 100 scale (0 no effect, 100 complete control)", "method_in_brief": "as §1"}, "[19]": {"test_system": "barnyardgrass (Echinochloa crus-galli)", "experiment": "Test B flooded paddy test, barnyardgrass", "settings": "Flood", "method_in_brief": "as §3"}, "[20]": {"test_system": "large crabgrass (Digitaria sanguinalis)", "experiment": "Test A preemergence, large crabgrass", "settings": "0 to 100 scale (0 no effect, 100 complete control)", "method_in_brief": "as §1"}, "[21]": {"test_system": "barnyardgrass (Echinochloa crus-galli)", "experiment": "Test A postemergence, barnyardgrass", "settings": "0 to 100 scale (0 no effect, 100 complete control)", "method_in_brief": "as §1"}, "[22]": {"test_system": "Surinam grass (Brachiaria decumbens)", "experiment": "Test B preemergence, Surinam grass", "settings": "Table B, preemergence; visual rating on a 0 to 100 scale (0 no effect, 100 complete control), 13 to 15 days after treatment; application rate of this section not shown", "source_text": "as §2"}, "[23]": {"test_system": "umbrella sedge (Cyperus difformis)", "experiment": "Test B flooded paddy test, umbrella sedge", "settings": "Flood, scale 0 to 100", "method_in_brief": "as §3"}, "[24]": {"test_system": "pigweed (Amaranthus retroflexus)", "experiment": "Test A preemergence, pigweed", "settings": "0 to 100 scale (0 no effect, 100 complete control)", "method_in_brief": "as §1"}}}
{"molecule": "Cn1c(=O)c(CS(=O)(=O)C2=NOC(C)(C)C2)c(C(F)(F)F)c2ccccc21", "note": "[Compound 1, 3-[[(4,5-dihydro-5,5-dimethyl-3-isoxazolyl)sulfonyl]methyl]-1-methyl-4-(trifluoromethyl)-2(1H)-quinolinone]", "values": [{"measurement": "Plant response rating, Crabgrass, Large", "setting": "[1]; 125 g ai/ha", "value": 10}, {"measurement": "Plant response rating, Crabgrass, Large", "setting": "[1]; 500 g ai/ha", "value": 70}, {"measurement": "Plant response rating, Sunflower", "setting": "[2]", "value": 0}, {"measurement": "Plant response rating, Wheat", "setting": "[3]", "value": 0}, {"measurement": "Plant response rating, Wheat", "setting": "[4]; 125 g ai/ha", "value": 0}, {"measurement": "Plant response rating, Wheat", "setting": "[4]; 500 g ai/ha", "value": 0}, {"measurement": "Plant response rating, Morningglory", "setting": "[5]; 125 g ai/ha", "value": 0}, {"measurement": "Plant response rating, Morningglory", "setting": "[5]; 500 g ai/ha", "value": 0}, {"measurement": "Plant response rating, Foxtail, Giant", "setting": "[6]; 125 g ai/ha", "value": 30}, {"measurement": "Plant response rating, Foxtail, Giant", "setting": "[6]; 500 g ai/ha", "value": 90}, {"measurement": "Plant response rating, Wheat", "setting": "[7]; 125 g ai/ha", "value": 0}, {"measurement": "Plant response rating, Wheat", "setting": "[7]; 500 g ai/ha", "value": 0}, {"measurement": "Plant response rating, Velvetleaf", "setting": "[8]", "value": 0}, {"measurement": "Plant response rating, Soybean", "setting": "soybean (Glycine max)", "value": 0}, {"measurement": "Plant response rating, Ryegrass, Italian", "setting": "[9]", "value": 0}, {"measurement": "Plant response rating, Foxtail, Giant", "setting": "[10]; 125 g ai/ha", "value": 20}, {"measurement": "Plant response rating, Foxtail, Giant", "setting": "[10]; 500 g ai/ha", "value": 80}, {"measurement": "Plant response rating, Rice", "setting": "rice (Oryza sativa); 31 g ai/ha", "value": 0}, {"measurement": "Plant response rating, Rice", "setting": "rice (Oryza sativa); 62 g ai/ha", "value": 0}, {"measurement": "Plant response rating, Rice", "setting": "rice (Oryza sativa); 125 g ai/ha", "value": 0}, {"measurement": "Plant response rating, Rice", "setting": "rice (Oryza sativa); 250 g ai/ha", "value": 20}, {"measurement": "Plant response rating, Velvetleaf", "setting": "[11]; 125 g ai/ha", "value": 0}, {"measurement": "Plant response rating, Velvetleaf", "setting": "[11]; 500 g ai/ha", "value": 20}, {"measurement": "Plant response rating, Pigweed", "setting": "[12]; 125 g ai/ha", "value": 0}, {"measurement": "Plant response rating, Pigweed", "setting": "[12]; 500 g ai/ha", "value": 50}, {"measurement": "Plant response rating, Corn", "setting": "corn (Zea mays) [13]; 125 g ai/ha", "value": 0}, {"measurement": "Plant response rating, Corn", "setting": "corn (Zea mays) [13]; 500 g ai/ha", "value": 0}, {"measurement": "Plant response rating, Velvetleaf", "setting": "[14]; 125 g ai/ha", "value": 0}, {"measurement": "Plant response rating, Velvetleaf", "setting": "[14]; 500 g ai/ha", "value": 0}, {"measurement": "Plant response rating, Barnyardgrass", "setting": "[15]; 125 g ai/ha", "value": 0}, {"measurement": "Plant response rating, Barnyardgrass", "setting": "[15]; 500 g ai/ha", "value": 80}, {"measurement": "Plant response rating, Ducksalad", "setting": "[16]; 31 g ai/ha", "value": 0}, {"measurement": "Plant response rating, Ducksalad", "setting": "[16]; 62 g ai/ha", "value": 0}, {"measurement": "Plant response rating, Ducksalad", "setting": "[16]; 125 g ai/ha", "value": 0}, {"measurement": "Plant response rating, Ducksalad", "setting": "[16]; 250 g ai/ha", "value": 0}, {"measurement": "Plant response rating, Corn", "setting": "corn (Zea mays) [17]", "value": 0}, {"measurement": "Plant response rating, Morningglory", "setting": "[18]; 125 g ai/ha", "value": 0}, {"measurement": "Plant response rating, Morningglory", "setting": "[18]; 500 g ai/ha", "value": 0}, {"measurement": "Plant response rating, Barnyardgrass", "setting": "[19]; 31 g ai/ha, scale 0 to 100", "value": 20}, {"measurement": "Plant response rating, Barnyardgrass", "setting": "[19]; 62 g ai/ha, scale 0 to 100", "value": 20}, {"measurement": "Plant response rating, Barnyardgrass", "setting": "[19]; 125 g ai/ha, scale 0 to 100", "value": 20}, {"measurement": "Plant response rating, Barnyardgrass", "setting": "[19]; 250 g ai/ha, scale 0 to 100 (0 no effect, 100 complete control)", "value": 20}, {"measurement": "Plant response rating, Crabgrass, Large", "setting": "[20]; 125 g ai/ha", "value": 0}, {"measurement": "Plant response rating, Crabgrass, Large", "setting": "[20]; 500 g ai/ha", "value": 50}, {"measurement": "Plant response rating, Barnyardgrass", "setting": "[21]; 125 g ai/ha", "value": 0}, {"measurement": "Plant response rating, Barnyardgrass", "setting": "[21]; 500 g ai/ha", "value": 80}, {"measurement": "Plant response rating, Surinam Grass", "setting": "[22]", "value": 0}, {"measurement": "Plant response rating, Sedge, Umbrella", "setting": "[23]; 31 g ai/ha", "value": 0}, {"measurement": "Plant response rating, Sedge, Umbrella", "setting": "[23]; 62 g ai/ha", "value": 0}, {"measurement": "Plant response rating, Sedge, Umbrella", "setting": "[23]; 125 g ai/ha", "value": 0}, {"measurement": "Plant response rating, Sedge, Umbrella", "setting": "[23]; 250 g ai/ha", "value": 0}, {"measurement": "Plant response rating, Pigweed", "setting": "[24]; 125 g ai/ha", "value": 0}, {"measurement": "Plant response rating, Pigweed", "setting": "[24]; 500 g ai/ha", "value": 60}]}
